Measured values from patent publication US20170058314A1, “NOVEL METHODOLOGY FOR IDENTIFYING ANTI-PERSISTER ACTIVITY AND ANTIMICROBIAL SUSCEPTIBILITY FOR BORRELIA BURGDORFERI AND OTHER BACTERIA” (priority 2014, published 2017).
Converted amounts (≈) assume the structure as drawn. “And” between values parts separate entries of the source, which are not always exact repeats. Equal values may be shown once.

Experiments:
[1] = tested on: round body form of B. burgdorferi; assay: SYBR Green I/PI assay on amoxicillin-induced round body form; conditions: for viability at 50 µM: Borreliella burgdorferi, 168 h, read-out: Residual viable cells (SYBR Green I/PI assay); for Ratios of green/red fluorescence, Primary screening / Ratios of green/red fluorescence, Rescreening (first column) / Ratios of green/red fluorescence, Rescreening (second column): round body form, 50 μM, 7 days
[2] = tested on: stationary phase B. burgdorferi persisters (strain B31); conditions: drug alone; cited from earlier work
[3] = tested on: stationary phase B. burgdorferi persisters (strain B31); assay: epifluorescence microscope counting after SYBR Green I/PI staining, FDA drug screen
S. aureus = conditions: Zhu et al., 2005; cited from earlier work
[4] = tested on: stationary phase B. burgdorferi persisters (strain B31); assay: SYBR Green I/PI viability assay (plate reader), FDA-approved drug library screen
[5] = tested on: stationary phase B. burgdorferi persisters (strain B31); assay: NCI compound library rescreen, epifluorescence microscope counting; conditions: Borreliella burgdorferi, 168 h
[6] = tested on: stationary phase B. burgdorferi persisters (strain B31); assay: NCI compound library screen, SYBR Green I/PI assay (plate reader); conditions: Borreliella burgdorferi, 168 h, read-out: Residual viable cells (SYBR Green I/PI assay)
[7] = tested on: B. burgdorferi (growing, strain B31); assay: MIC determination, standard microdilution method; type: cell-based, Borrelia burgdorferi; conditions: Borreliella burgdorferi; growing B. burgdorferi; read-out: MIC
[8] = tested on: K. pneumoniae (Isolate 7); assay: Rapid SYBR Green/PI antibiotic susceptibility test, 30 minutes; type: cell-based, Klebsiella pneumoniae; conditions: 25 μg/mL
[9] = tested on: B. burgdorferi log and stationary phase cultures; assay: epi-fluorescence microscope counting after antibiotic exposure (persister frequency, planktonic forms); type: cell-based, Borrelia burgdorferi
Protocol: Specimens were examined on a Nikon Eclipse E800 microscope equipped with differential interference contrast (DIC) and epi-fluorescence illumination, and recorded with a Spot slider color camera. Cell proliferation assays were performed by direct counting using a bacterial counting chamber (Hausser Scientific Partnership) and DIC microscopy. SYBR Green I/PI assay was performed to assess the viability of B. burgdorferi. The ratio of live (green) and dead (red) B. burgdorferi was calculated by counting these cells using a bacterial counting chamber and epi-fluorescence microscopy. The three representative images of every sample were captured for quantitative analysis. Image Pro-Plus software was applied for measuring the biomass (fluorescence intensity) of different forms (spirochetes, round body, and microcolony) of B. burgdorferi as previously described (Shopov and Williams, 2000).
To qualitatively determine the effect of antibiotics, 10 μL of each compound from the pre-diluted plate or pre-diluted stock was added to stationary phase B. burgdorferi culture in the 96-well plate. The final volume per well was adjusted to 100 μL at a concentration of 10 μg/mL for each antibiotic. Plates were sealed and placed in a 33° C. incubator for 7 days. The SYBR Green I/PI viability assay was used to assess the live and dead cells after antibiotic exposure as described (Feng, Wang, Shi, et al., 2014). Briefly, 10 μL of SYBR Green I (10,000×stock, Invitrogen) was mixed with 30 μL propidium iodide (PI, 20 mM) into 1.0 mL of sterile dH2O. Then, 10 μL of staining mixture was added to each well and mixed thoroughly. The plates were incubated at room temperature in the dark for 15 minutes followed by plate reading at excitation wavelength at 485 nm and the fluorescence intensity at 535 nm (green emission) and 635 nm (red emission) in microplate reader (HTS 7000 plus Bio Assay Reader, PerkinElmer Inc., USA). With least-square fitting analysis, the regression equation and regression curve of the relationship between percentage of live bacteria and green/red fluorescence ratios was obtained. The regression equation was used to calculate the percentage of live cells in each well of the 96-well plate.
Therefore, the frequency of B. burgdorferi persisters in log phase and stationary phase cultures was assessed using the SYBR Green I/PI viability assay after exposure of the cultures to antimicrobials. E. coli culture was used as a control after exposure to antibiotics to validate the SYBR Green I/PI viability assay for persister frequency assessment.

[10] = tested on: log phase and stationary phase B. burgdorferi culture; assay: Antibiotic exposure assay, SYBR Green I/PI (drugs alone and combinations); conditions: Borreliella burgdorferi, 168 h, read-out: Live Cell % (residual viable B. burgdorferi), ten-day-old stationary phase culture enriched with micro-colonies, 10 μg/mL each drug, 7 days
Procedure, shortened: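 Stationary-phase or round-body B. burgdorferi exposed 7 days at 33 °C to drugs alone or combined at 10 μg/mL each (single-compound screen: 50 μM final). Viability by SYBR Green I/PI, ex 485, em 535/635 nm; percent live from regression of green/red ratio, corrected by direct microscopy counting.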

[11] = tested on: E. coli strains (W3110, UTI89, CFT073, KTE181); assay: Rapid SYBR Green/PI antibiotic susceptibility test; type: cell-based, Escherichia coli; conditions: for percent killed, sensitive strain W3110: others 25 μg/mL
E. coli UTI89 persisters = assay: Persister assay (CFU enumeration and SYBR Green/PI); type: cell-based, Escherichia coli; conditions: ampicillin 100, ofloxacin 5, polymycin B 10, gentamicin 20 μg/mL
Protocol: Stationary phase cultures of E. coli UTI89 were treated with ofloxacin (5 μg/mL) for 4 hours to enrich for persisters, followed by drug exposure with different antibiotics including ampicillin (100 μg/mL), ofloxacin (5 μg/mL), polymycin B (10 μg/mL) and gentamicin (20 μg/mL). The bacterial viability was determined by CFU enumeration and SYBR Green/PI assay as described above.

E. coli W3110 = assay: MIC by broth microdilution (OD600) and SYBR Green/PI; type: cell-based; conditions: Escherichia coli; E. coli W3110, overnight incubation
Text: The Kirby-Bauer disk diffusion assay was used to determine the susceptibility of the various strains to antibiotics. Instructions and also interpretation of zone diameters were made using the established standards as listed in the Clinical and Laboratory Standards Institute (CLSI). Briefly, bacterial cultures were adjusted to a 0.5 McFarland turbidity standard and spread onto Mueller-Hinton agar. Paper Disks were impregnated onto the agar and the antibiotics at concentrations recommended by CLSI were pipetted onto each blank disk and allowed to air dry for 10 minutes. The plates were incubated at 37° C. overnight before the zone of inhibition was measured in millimeters. […]
The staining dye for Staphylococcus aureus, Escherichia coli, Acinetobacter baumanii, and Mycobacterium tuberculosis were made by mixing SYBR Green I to propidium iodide (1:3) in 100 μl distilled H2O. […] The green and red fluorescence intensity was detected using a Synergy H1 microplate reader by Bio Tek Instruments (VT, USA) at excitation wavelength of 485 nm, 538 nm (green emission), and 612 nm (red emission). The percentage of live cells in each sample was determined by a regression equation generated by a standard curve. […] The staining mixture was added to each sample and the green/red fluorescent ratios were measured as described above. […]

M. tuberculosis H37Ra = type: cell-based, Mycobacterium tuberculosis; conditions: pH 5.9
B. burgdorferi = conditions: after 72 h; Kraiczy et al., 2001; cited from earlier work
[12] = tested on: S. aureus strains (Newman, USA300, CA-409, CA-127, NY-315); assay: Rapid SYBR Green/PI antibiotic susceptibility test; type: cell-based, Staphylococcus aureus; conditions: for cut-off (averaged proportion of killed cells) for resistant strains / cut-off (averaged proportion of killed cells) for susceptible strains: 100 μg/mL, 1.5 hours
S. aureus USA300 = assay: MIC by broth microdilution (OD600) and SYBR Green/PI; type: cell-based; conditions: Staphylococcus aureus; S. aureus USA300, overnight incubation
[13] = 50 μM, 7 days, stationary phase
[14] = 30 minutes, ampicillin 100 μg/mL
[15] = ampicillin, streptomycin 100 μg/mL, trimethoprim 5 μg/mL

Cc1ccc(C(C)C)c(O)c1 [Thymol]
viability at 50 µM [1]: 34%
Ratios of green/red fluorescence, Primary screening [1]: 6.15
Ratios of green/red fluorescence, Rescreening (first column) [1]: 6.36
Ratios of green/red fluorescence, Rescreening (second column) [1]: 6.36
residual live cell percentage, stationary phase, previous drug screen [2]: 82%

COc1cccc2c1C(=O)c1c(O)c3c(c(O)c1C2=O)C[C@@](O)(C(=O)CO)C[C@@H]3O[C@H]1C[C@H](N)[C@H](O)[C@H](C)O1 [doxorubicin]
bactericidal activity by microscopic counting ([3]; FDA drug screen): no bactericidal activity
MIC against S. aureus (S. aureus): 0.12 to 0.5 µg/mL
activity against stationary phase B. burgdorferi (words; SYBR Green I/PI assay) ([4]; FDA drug screen): very high activity

COc1cccc2c1C(=O)c1c(O)c3c(c(O)c1C2=O)C[C@@](O)(C(C)=O)C[C@@H]3OC1CC(N)C(O)C(C)O1.Cl (some centres unmarked) [NSC82151, Daunorubicin hydrochloride]
viability at 50 µM ([5]; read-out: Activity against persisters (residual viable cell percentage)): 10%
viability at 50 µM ([5]; read-out: Residual viable cells (epifluorescence microscope counting)): 10%
viability at 50 µM [6]: 0%
MIC [7]: ≤ 0.35 µg/mL
MIC against S. aureus (S. aureus): 8 to 32 µg/mL

CO/N=C(\C(=O)N[C@@H]1C(=O)N2C(C(=O)O)=C(CSc3nc(=O)c(=O)[nH]n3C)CS[C@H]12)c1csc(N)n1 [Ceftriaxone]
killing of resistant K. pneumoniae strain [8]: not killed at all
viability at 50 µM ([3]; Borreliella burgdorferi, 168 h, read-out: Residual viable cells (epifluorescence microscope counting)): 50%
persister frequency (percentage of live cells after antibiotic treatment, in brackets) ([9]; 3-day log phase culture): (5.8%)
persister frequency (in brackets) ([9]; 7-day stationary phase culture): (16%)
persister frequency (in brackets) ([9]; 10-day stationary phase culture): (~25%)
viability at 10 µg/mL [10]: 68%
viability at 50 µM [1]: 36%
Ratios of green/red fluorescence, Primary screening [1]: 6.37
Ratios of green/red fluorescence, Rescreening (first column) [1]: 6.29
Ratios of green/red fluorescence, Rescreening (second column) [1]: 6.39
Ratio of Green/Red fluorescence, Primary screening [4, 13]: 6.74
Ratio of Green/Red fluorescence, Rescreening (first column) [4, 13]: 6.89
Ratio of Green/Red fluorescence, Rescreening (second column) [4, 13]: 6.78
viability at 50 µM ([4]; Borreliella burgdorferi, 168 h, read-out: Residual viable cells (regression equation, SYBR Green I/PI assay)): 44%
percent killed, sensitive strain W3110 [11, 14]: 37%

CC1(C)S[C@@H]2[C@H](NC(=O)[C@H](N)c3ccccc3)C(=O)N2[C@H]1C(=O)O [ampicillin]
level of persisters over 7 days (words; CFU and SYBR Green/PI) (E. coli UTI89 persisters): stayed constant
MIC (E. coli W3110): 8 µg/mL
percent killed, sensitive strain UTI89 [11, 14]: 23%
percent killed, sensitive strain W3110 [11, 14]: 38%
percent killed, resistant strain KTE181 ([11]; 30 minutes, ampicillin 100, trimethoprim 25, streptomycin 25 μg/mL): 1%
cut-off (averaged proportion of killed cells) for resistant strains [11, 15]: -0.1
cut-off (averaged proportion of killed cells) for susceptible strains [11, 15]: −0.5

NC(=O)c1cnccn1 [PZA, pyrazinamide]
susceptibility of parent strain H37Ra (M. tuberculosis H37Ra): susceptible

O=C(O)c1cn(C2CC2)c2cc(N3CCNCC3)c(F)cc2c1=O [Ciprofloxacin]
MIC [7]: 0.8 to 1.6 µg/mL (≈ 2.41 to 4.83 µM)
MBC (B. burgdorferi): 16 μg/mL and 41.5 μM
cut-off (averaged proportion of killed cells) for resistant strains [12]: −0.1
cut-off (averaged proportion of killed cells) for susceptible strains [12]: −0.3
percent killed, resistant strain CA-409 ([12]; 30 minutes, kanamycin 25, ciprofloxacin 50, gentamicin 400 μg/mL): 21%
percent killed, sensitive Newman strain ([12]; 30 minutes, kanamycin 25, erythromycin 400, ciprofloxacin 50, gentamicin 400 μg/mL): 58%

O=C(N[C@H](CO)[C@H](O)c1ccc([N+](=O)[O-])cc1)C(Cl)Cl [chloramphenicol]
cut-off (averaged proportion of killed cells) for resistant strains [12]: −0.1
cut-off (averaged proportion of killed cells) for susceptible strains [12]: −0.5
MIC (S. aureus USA300): 4 µg/mL (≈ 12.4 µM)

CO/N=C(\C(=O)N[C@@H]1C(=O)N2C(C(=O)O)=C(COC(C)=O)CS[C@H]12)c1csc(N)n1 [cefotaxime]
killing of resistant K. pneumoniae strain [8]: not killed at all
percent killed, sensitive strain W3110 [11, 14]: 24%
